# Several values for one entry are separate records, joined by “and”; a condition that tells them apart may be missing. Equal entries are not always repeated. Inconclusive results and toxic doses are left out.
# System: CD2F1 mice, L1210 leukemia ip, survival T/C
# Experiment: NCI In Vivo Anticancer Drug Screen. Data for tumor model L1210 Leukemia (intraperitoneal) in CD2F1 (CDF1) mice
# Conditions: higher = longer survival
# How it was run: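 Tumor-bearing mice (transplanted tumor) were split into treated and vehicle control groups, and the measured endpoint of each treated group was divided by that of its vehicle controls.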
# [1] = endpoint: mean survival time, dose: 100.0 mg/kg/injection, schedule: Q04DX003 (ip), vehicle: saline with Tween-80
# [2] = endpoint: mean survival time, dose: 200.0 mg/kg/injection, schedule: Q04DX003 (ip), vehicle: saline with Tween-80
# [3] = endpoint: mean survival time, dose: 400.0 mg/kg/injection, schedule: Q04DX003 (ip), vehicle: saline with Tween-80
# [4] = endpoint: mean survival time, dose: 100.0 mg/kg/injection, schedule: Q01DX009 (ip), vehicle: saline with Tween-80
# [5] = endpoint: mean survival time, dose: 200.0 mg/kg/injection, schedule: Q01DX009 (ip), vehicle: saline with Tween-80
# [6] = endpoint: mean survival time, dose: 400.0 mg/kg/injection, schedule: Q01DX009 (ip), vehicle: saline with Tween-80
# [7] = endpoint: mean survival time, dose: 100.0 mg/kg/injection, schedule: Q04DX002 (ip), vehicle: saline
compound,measurement,setting,value
CCOC(=O)C(Cc1ccccc1Cl)(Cc1ccccc1Cl)c1ccccc1,T/C,[1],93 % of control
same,T/C,[2],98 % of control
same,T/C,[3],90 % of control
O=C(O)/C=C(/C(=O)O)c1cccn1Cc1ccccc1,T/C,"endpoint: mean survival time, dose: 25.0 mg/kg/injection, schedule: Q04DX002 (ip), vehicle: saline with Tween-80",93 % of control
same,T/C,"endpoint: mean survival time, dose: 50.0 mg/kg/injection, schedule: Q04DX002 (ip), vehicle: saline with Tween-80",101 % of control
same,T/C,"endpoint: mean survival time, dose: 100.0 mg/kg/injection, schedule: Q04DX002 (ip), vehicle: saline with Tween-80",86 % of control and 87 % of control
N#CSCc1ccc(Cl)cc1,T/C,"endpoint: mean survival time, dose: 6.25 mg/kg/injection, schedule: Q01DX009 (ip), vehicle: saline with Tween-80",98 % of control
same,T/C,"endpoint: mean survival time, dose: 12.5 mg/kg/injection, schedule: Q01DX009 (ip), vehicle: saline with Tween-80",96 % of control
same,T/C,"endpoint: mean survival time, dose: 25.0 mg/kg/injection, schedule: Q01DX009 (ip), vehicle: saline with Tween-80",106 % of control
CCN(CC)CC(C)(C)CO,T/C,"endpoint: mean survival time, dose: 50.0 mg/kg/injection, schedule: Q01DX009 (ip), vehicle: saline with Tween-80",104 % of control
same,T/C,[4],95 % of control
same,T/C,[1],92 % of control
same,T/C,[5],98 % of control
same,T/C,[2],97 % of control
CCCCCCC#CC(=O)OC,T/C,[4],101 % of control
same,T/C,[1],96 % of control
same,T/C,[5],101 % of control
same,T/C,[2],102 % of control
same,T/C,[3],97 % of control
[I][Pt+2][I].[NH-]CC[NH-],T/C,"endpoint: mean survival time, dose: 20.0 mg/kg/injection, schedule: Q04DX003 (ip), vehicle: water",115 % of control
same,T/C,"endpoint: mean survival time, dose: 40.0 mg/kg/injection, schedule: Q04DX003 (ip), vehicle: water",116 % of control
same,T/C,"endpoint: mean survival time, dose: 80.0 mg/kg/injection, schedule: Q04DX003 (ip), vehicle: water",120 % of control
same,T/C,"endpoint: mean survival time, dose: 160.0 mg/kg/injection, schedule: Q04DX003 (ip), vehicle: water",115 % of control
same,T/C,"endpoint: mean survival time, dose: 320.0 mg/kg/injection, schedule: Q04DX003 (ip), vehicle: water",93 % of control
O=C(O)/C=C/c1ccco1,T/C,[4],95 % of control
same,T/C,[1],101 % of control
same,T/C,[5],94 % of control
same,T/C,[2],98 % of control
same,T/C,[6],96 % of control
same,T/C,[3],108 % of control
CCCCOC(=O)c1ccccc1,T/C,[4],102 % of control
same,T/C,[5],104 % of control
O=C(NCCN1CC1)c1ccccc1C(=O)NCCN1CC1,T/C,"endpoint: mean survival time, dose: 25.0 mg/kg/injection, schedule: Q04DX003 (ip), vehicle: saline with Tween-80",105 % of control
same,T/C,"endpoint: mean survival time, dose: 50.0 mg/kg/injection, schedule: Q04DX003 (ip), vehicle: saline with Tween-80",100 % of control
same,T/C,"endpoint: mean survival time, dose: 100.0 mg/kg/injection, schedule: Q01DX001 (ip), vehicle: saline",110 % of control
same,T/C,[1],117 % of control
same,T/C,"endpoint: mean survival time, dose: 200.0 mg/kg/injection, schedule: Q01DX001 (ip), vehicle: saline",164 % of control
O=C(CNC(=O)c1ccccc1)N/N=C/c1ccccc1O,T/C,[4],94 % of control
same,T/C,[5],95 % of control
same,T/C,[6],89 % of control
CCn1c(=O)c2[nH]c(Cl)nc2n(CC)c1=O,T/C,"endpoint: mean survival time, dose: 25.0 mg/kg/injection, schedule: Q04DX003 (ip), vehicle: Klucel (hydroxypropylcellulose) (HPC)",102 % of control
same,T/C,"endpoint: mean survival time, dose: 50.0 mg/kg/injection, schedule: Q04DX003 (ip), vehicle: Klucel (hydroxypropylcellulose) (HPC)",105 % of control
same,T/C,"endpoint: mean survival time, dose: 100.0 mg/kg/injection, schedule: Q04DX003 (ip), vehicle: Klucel (hydroxypropylcellulose) (HPC)",107 % of control
CCc1ccc(NC(=O)c2cccc(Cl)c2)cc1,T/C,[4],93 % of control
same,T/C,[1],95 % of control
same,T/C,[5],109 % of control
same,T/C,[2],98 % of control
same,T/C,[6],98 % of control
same,T/C,[3],98 % of control
COC(=O)C1CCC(N(C)S(=O)(=O)c2ccc(C)cc2)CC1 (stereo unspecified),T/C,"endpoint: mean survival time, dose: 100.0 mg/kg/injection, schedule: Q01DX009 (ip), vehicle: Klucel (hydroxypropylcellulose) (HPC)",100 % of control
same,T/C,"endpoint: mean survival time, dose: 200.0 mg/kg/injection, schedule: Q01DX009 (ip), vehicle: Klucel (hydroxypropylcellulose) (HPC)",96 % of control
same,T/C,"endpoint: mean survival time, dose: 400.0 mg/kg/injection, schedule: Q01DX009 (ip), vehicle: Klucel (hydroxypropylcellulose) (HPC)",92 % of control
O=CC(O)C(O)C(O)C(O)C(=O)O.[NH-]CC1CCCCC1[NH-].[Pt+2] (stereo unspecified),T/C,"endpoint: mean survival time, dose: 1.88 mg/kg/injection, schedule: Q04DX003 (ip), vehicle: saline",118 % of control
same,T/C,"endpoint: mean survival time, dose: 7.5 mg/kg/injection, schedule: Q04DX003 (ip), vehicle: saline",156 % of control
same,T/C,"endpoint: mean survival time, dose: 15.0 mg/kg/injection, schedule: Q04DX003 (ip), vehicle: saline",166 % of control and 253 % of control
same,T/C,"endpoint: mean survival time, dose: 30.0 mg/kg/injection, schedule: Q04DX003 (ip), vehicle: saline",151 % of control
CC(C)([NH-])C[NH-].O=C(O)CCO.[Pt+2],T/C,"endpoint: median survival time, dose: 20.0 mg/kg/injection, schedule: Q04DX003 (ip), vehicle: saline",255 % of control
same,T/C,"endpoint: median survival time, dose: 20.0 mg/kg/injection, schedule: Q04DX003 (ip), vehicle: water",173 % of control
same,T/C,"endpoint: median survival time, dose: 40.0 mg/kg/injection, schedule: Q04DX003 (ip), vehicle: saline",232 % of control
same,T/C,"endpoint: median survival time, dose: 40.0 mg/kg/injection, schedule: Q04DX003 (ip), vehicle: water",170 % of control
same,T/C,"endpoint: median survival time, dose: 80.0 mg/kg/injection, schedule: Q04DX003 (ip), vehicle: saline",116 % of control
same,T/C,"endpoint: median survival time, dose: 80.0 mg/kg/injection, schedule: Q04DX003 (ip), vehicle: water",90 % of control
O=C(OCCO)c1ccccc1,T/C,[4],98 % of control
same,T/C,[1],95 % of control
same,T/C,[5],97 % of control
same,T/C,[2],98 % of control
same,T/C,[6],97 % of control
same,T/C,[3],103 % of control
Nc1cc2c(c[n+](CCCBr)c3ccccc23)c2ccccc12,T/C,"endpoint: mean survival time, dose: 3.13 mg/kg/injection, schedule: Q04DX003 (ip), vehicle: other",111 % of control
same,T/C,"endpoint: mean survival time, dose: 6.25 mg/kg/injection, schedule: Q04DX003 (ip), vehicle: other",122 % of control
same,T/C,"endpoint: mean survival time, dose: 12.5 mg/kg/injection, schedule: Q04DX003 (ip), vehicle: other",120 % of control
same,T/C,"endpoint: mean survival time, dose: 25.0 mg/kg/injection, schedule: Q04DX003 (ip), vehicle: other",109 % of control
same,T/C,"endpoint: mean survival time, dose: 50.0 mg/kg/injection, schedule: Q04DX003 (ip), vehicle: other",87 % of control
CN(C)N=Nc1ccc(C#N)cc1,T/C,"endpoint: mean survival time, dose: 7.37 mg/kg/injection, schedule: Q01DX009 (ip), vehicle: Klucel (hydroxypropylcellulose) (HPC)",100 % of control
same,T/C,"endpoint: mean survival time, dose: 14.75 mg/kg/injection, schedule: Q01DX009 (ip), vehicle: Klucel (hydroxypropylcellulose) (HPC)",100 % of control
same,T/C,"endpoint: mean survival time, dose: 29.5 mg/kg/injection, schedule: Q01DX009 (ip), vehicle: Klucel (hydroxypropylcellulose) (HPC)",108 % of control
same,T/C,"endpoint: mean survival time, dose: 59.0 mg/kg/injection, schedule: Q01DX009 (ip), vehicle: Klucel (hydroxypropylcellulose) (HPC)",108 % of control
same,T/C,"endpoint: mean survival time, dose: 118.0 mg/kg/injection, schedule: Q01DX009 (ip), vehicle: Klucel (hydroxypropylcellulose) (HPC)",120 % of control and 107 % of control
O.O=[Se](=O)(O)O.[NH-]C1CCCCC1[NH-].[Pt+2] (stereo unspecified),T/C,"endpoint: mean survival time, dose: 2.0 mg/kg/injection, schedule: Q01DX009 (ip), vehicle: dextrose",88 % of control
same,T/C,"endpoint: mean survival time, dose: 3.0 mg/kg/injection, schedule: Q01DX009 (ip), vehicle: dextrose",109 % of control
same,T/C,"endpoint: mean survival time, dose: 8.0 mg/kg/injection, schedule: Q04DX003 (ip), vehicle: dextrose",87 % of control
c1ccc2c(-c3cnc(-c4ccc(-c5ncc(-c6cccc7ccccc67)o5)cc4)o3)cccc2c1,T/C,"endpoint: mean survival time, dose: 75.0 mg/kg/injection, schedule: Q01DX001 (ip), vehicle: saline",100 % of control
same,T/C,"endpoint: mean survival time, dose: 150.0 mg/kg/injection, schedule: Q01DX001 (ip), vehicle: saline",102 % of control
same,T/C,"endpoint: mean survival time, dose: 300.0 mg/kg/injection, schedule: Q01DX001 (ip), vehicle: saline",97 % of control
CN1CC2C(O)CCC1CC2O (stereo unspecified),T/C,[7],105 % of control
same,T/C,"endpoint: mean survival time, dose: 200.0 mg/kg/injection, schedule: Q04DX002 (ip), vehicle: saline",90 % of control
CNC1CC2CCC1(C)C2(C)C (stereo unspecified),T/C,"endpoint: mean survival time, dose: 25.0 mg/kg/injection, schedule: Q04DX002 (ip), vehicle: saline",101 % of control
same,T/C,"endpoint: mean survival time, dose: 50.0 mg/kg/injection, schedule: Q04DX002 (ip), vehicle: saline",112 % of control
same,T/C,[7],96 % of control
CN1CCN(c2ccc([N+](=O)[O-])c3no[n+]([O-])c23)CC1,T/C,"endpoint: mean survival time, dose: 2.5 mg/kg/injection, schedule: Q01DX009 (ip), vehicle: saline with Tween-80",105 % of control and 112 % of control
same,T/C,"endpoint: mean survival time, dose: 5.0 mg/kg/injection, schedule: Q01DX009 (ip), vehicle: saline with Tween-80",114 % of control and 108 % of control
same,T/C,"endpoint: mean survival time, dose: 5.0 mg/kg/injection, schedule: Q01DX009 (ip), vehicle: saline",123 % of control
same,T/C,"endpoint: mean survival time, dose: 10.0 mg/kg/injection, schedule: Q01DX009 (ip), vehicle: saline with Tween-80",116 % of control and 110 % of control
same,T/C,"endpoint: mean survival time, dose: 20.0 mg/kg/injection, schedule: Q01DX009 (ip), vehicle: saline with Tween-80",117 % of control and 119 % of control
same,T/C,"endpoint: mean survival time, dose: 40.0 mg/kg/injection, schedule: Q01DX009 (ip), vehicle: saline with Tween-80",122 % of control and 103 % of control
same,T/C,"endpoint: mean survival time, dose: 80.0 mg/kg/injection, schedule: Q01DX009 (ip), vehicle: saline with Tween-80",121 % of control
